Results reported in ChEMBL document CHEMBL1201862, “PubChem BioAssay data set” (2004).
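Growth conditions: 96-well plates. Treatment: test compound, 48 hours, 5 concentrations. Analysis: linear interpolation between bracketing concentrations; unreached endpoints set to highest concentration. GI50 marks 50% less growth.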 Calls of active or inactive are those of the source. Cut-off read from the data, not from the text of the source: active = GI50 up to about 1.1 µM and inactive = higher.

How the values were obtained:
Assay in all cases: inhibition of tumour cell growth, NCI panel, 48 h
HOP-62 = system: HOP-62
HOP-92 = system: HOP-92
HT-29 = system: HT-29
Hs-578T = system: Hs-578T
IGROV-1 = system: IGROV-1
MCF7 = system: MCF7
MDA-MB-231 = system: MDA-MB-231
MDA-MB-435 = system: MDA-MB-435
NCI/ADR-RES = system: NCI/ADR-RES
OVCAR-4 = system: OVCAR-4
RPMI-8226 = system: RPMI-8226
RXF 393 = system: RXF 393
SF-268 = system: SF-268
SK-MEL-2 = system: SK-MEL-2
SK-OV-3 = system: SK-OV-3
SW-620 = system: SW-620
Malme-3M = system: Malme-3M
OVCAR-3 = system: OVCAR-3
SN12C = system: SN12C
MDA-N = system: MDA-N

| Compound | GI50 (HOP-62) | GI50 (HOP-92) | GI50 (HT-29) | GI50 (Hs-578T) | GI50 (IGROV-1) | GI50 (MCF7) | GI50 (MDA-MB-231) | GI50 (MDA-MB-435) | GI50 (NCI/ADR-RES) | GI50 (OVCAR-4) | GI50 (RPMI-8226) | GI50 (RXF 393) | GI50 (SF-268) | GI50 (SK-MEL-2) | GI50 (SK-OV-3) | GI50 (SW-620) | GI50 (Malme-3M) | GI50 (OVCAR-3) | GI50 (SN12C) | GI50 (MDA-N) |
| --- | --- | --- | --- | --- | --- | --- | --- | --- | --- | --- | --- | --- | --- | --- | --- | --- | --- | --- | --- | --- |
| CCOC(=O)c1nc2ccc(C(F)(F)F)cc2nc1Oc1ccc(F)cc1 | > 100 µM (inactive) | > 100 µM (inactive) | > 100 µM (inactive) | > 100 µM (inactive) | > 100 µM (inactive) | > 100 µM (inactive) | > 100 µM (inactive) | > 100 µM (inactive) | > 100 µM (inactive) | > 100 µM (inactive) | > 100 µM (inactive) | > 100 µM (inactive) | > 100 µM (inactive) | > 100 µM (inactive) | > 100 µM (inactive) | > 100 µM (inactive) | – | – | – | – |
| COc1ccc2c(c1)C=C([N+](=O)[O-])C(C1OC(C)(C)OC1C1COC(C)(C)O1)O2 (stereo not drawn) | 20 µM (inactive) | 16.1 µM (inactive) | 1.97 µM (inactive) | 4.18 µM (inactive) | 14.6 µM (inactive) | 2.54 µM (inactive) | 2.36 µM (inactive) | 3.06 µM (inactive) | – | 8.17 µM (inactive) | 1.67 µM (inactive) | 1.98 µM (inactive) | 3.5 µM (inactive) | 1.87 µM (inactive) | 11 µM (inactive) | 2.26 µM (inactive) | 2.31 µM (inactive) | 8.69 µM (inactive) | 4.91 µM (inactive) | – |
| COc1ccc(C2C(C=O)C(N3CCN(C)CC3)=Nc3nc4ccccc4n32)cc1 (stereo not drawn) | 12.2 µM (inactive) | 4.83 µM (inactive) | 15.8 µM (inactive) | 33 µM (inactive) | 16.3 µM (inactive) | 13.2 µM (inactive) | 12.1 µM (inactive) | 15.5 µM (inactive) | 17.4 µM (inactive) | 8.18 µM (inactive) | 2.35 µM (inactive) | 13.6 µM (inactive) | 16.6 µM (inactive) | 13.1 µM (inactive) | – | 17.3 µM (inactive) | 10.8 µM (inactive) | 14.3 µM (inactive) | 17.9 µM (inactive) | – |
| CN(C)CCNc1ccc(CO)c2sc3ccc(O)cc3c(=O)c12 | 0.204 µM (active) | 0.832 µM (active) | 2.3 µM (inactive) | – | 3.42 µM (inactive) | – | 1.85 µM (inactive) | 1.56 µM (inactive) | 3.28 µM (inactive) | 4.63 µM (inactive) | 1.69 µM (inactive) | 1.96 µM (inactive) | 1.55 µM (inactive) | 5.21 µM (inactive) | 1.76 µM (inactive) | 1.17 µM (inactive) | 2.66 µM (inactive) | 10.6 µM (inactive) | 1.23 µM (inactive) | 1.45 µM (inactive) |
| Cc1ccc(-c2c(C#N)c(O)n(NS(=O)(=O)c3ccccc3)c(=O)c2C#N)cc1 | > 100 µM (inactive) | > 100 µM (inactive) | > 100 µM (inactive) | – | > 100 µM (inactive) | > 100 µM (inactive) | > 100 µM (inactive) | > 100 µM (inactive) | > 100 µM (inactive) | > 100 µM (inactive) | – | > 100 µM (inactive) | > 100 µM (inactive) | > 100 µM (inactive) | > 100 µM (inactive) | > 100 µM (inactive) | > 100 µM (inactive) | – | > 100 µM (inactive) | – |
| CCc1c(O)cc(=O)oc1-c1ccc(OC)c(OC)c1 | > 100 µM (inactive) | > 100 µM (inactive) | > 100 µM (inactive) | > 100 µM (inactive) | > 100 µM (inactive) | > 100 µM (inactive) | > 100 µM (inactive) | > 100 µM (inactive) | > 100 µM (inactive) | > 100 µM (inactive) | – | > 100 µM (inactive) | > 100 µM (inactive) | > 100 µM (inactive) | > 100 µM (inactive) | > 100 µM (inactive) | – | > 100 µM (inactive) | > 100 µM (inactive) | – |
